Results reported in patent US9249159B2, “Composition for treating hepatitis C virus, regulating phosphorylation of replicase” (Industry-Academic Cooperation Foundation, Yonsei University, priority 2011, dated 2016).
Entries after “also recorded” stand apart in the source; their conditions may differ.

Assays:
[1] = test system: genotype 1b HCV subgenomic replicon (R-1 cell line); assay: HCV replication (HCV RNA by real-time RT-PCR, NS5B protein by Western blot) in R-1 subgenomic replicon cells; assay type: cell-based, hepatitis C virus genotype 1b; settings: 48 hours
Description: In order to check a PRK2 phosphorylation inhibition effect of the novel inhibitors obtained in Example 1, R-1 cell line harboring HCV subgenomic replicons was used.
The R-1 cell line was comprised of cis-acting RNA elements of 5′ and 3′-end untranslated regions (UTR) essential for replication of HCV RNA, a selection marker inserted to select a replicated RNA into a portion from which a structural protein coding site was removed, and a non-structural protein (NS3-NS5B)-coding gene required for replication. In the replicon, the selection marker was expressed by the HCV 5′-UTR and internal ribosome entry site (IRES) as a part of a coding gene of a core protein as a structural protein and capsid protein, and HCV non-structural proteins were expressed by IRES of EMCV. In order to obtain replicon cells, a HCV subgenomic replicon RNA was obtained by means of in vitro transcription by using a T7 RNA polymerase, free ribonucleotide was removed by using a spin column, and introduced into a hepatocellular carcinoma cell line by electroporation. In the presence of G418, a stable cell line, i.e. a cell line showing a resistance to G418 through replication of HCV subgenome, was obtained. Expression of the HCV non-structural proteins in this cell line was analyzed by Western blot to confirm that replication was being carried out, and the R-1 cell line was constructed. It was observed that an HCV RNA copy number was about 10^7 copies/mL by a quantitative real-time PCR analysis using a TaqMan probe. The R-1 cell line was a cell line in which HCV RNA replication was being carried out, and thus it could be used to evaluate an HCV replication inhibition effect of a PRK2 activity inhibitor.
Then, after the R-1 cell line was treated with each of 5 screened PRK2 inhibitors, HA1077 currently and clinically used as a PRK2 activity inhibitor, and Y27632 having a PRK2 activity inhibition effect at a final concentration of 20 μM for 48 hours, levels of HCV NS5B protein and HCV RNA in cell lysates (50 μg) were analyzed by Western blot and real-time RT-PCR.
(§1) To do so, after the two cell lines were treated with the compound #17 at higher concentrations (60 and 100 μM) than 20 μM for 48 hours, an HCV RNA genome level was checked by a real-time RT-PCR analysis. A value was a mean±standard deviation (SD) of three independent measurements. HCV RNA titer was quantified by real-time PCR analysis. Three independent experiments were performed in triplicate.
5 derivatives (#18 to #22: refer to FIG. 2) were produced based on the inhibitor #17 showing the best effect. After the R-1 cell line was treated with each of these inhibitors or HA1077 and Y27632 at a final concentration of 20 μM for 48 hours, an HCV RNA genome level was checked by a real-time RT-PCR analysis and expressed in % with respect to a control treated with DSMO. Three independent experiments were conducted repeatedly three times. Data were expressed by mean±SD of the three experiments.
(§2) Total RNA was extracted from R-1 or HCV (JFH1)-infected cells using TRIzol LS reagent (Invitrogen, Carlsbad, Calif., USA) and purified according to the manufacturer's instructions. HCV RNA levels were quantified by RT-PCR using a primer pair and TaqMan probe targeting a region within the HCV 5′-UTR as described previously. Cellular glyceraldehyde-3-phosphate dehydrogenase was used as an internal control. Assays were performed using the DyNAmo Probe 2-step qRT-PCR Kit (Finnzymes, Espoo, Finland) and a CHROMO4 continuous fluorescence detector (Bio-Rad, Hercules, Calif., USA), according to the manufacturer's instructions.
Therefore, anti-HCV activity of 17-DMAG in the R-1 cell was tested at a level lower than 50 nM. To do so, the R-1 cell was treated with a vehicle (0.25% DMSO) or 17-DMAG for 72 hours and the cell lysates (50 μg) and antibodies specific to the proteins were immunoblotted to measure levels of the proteins. An anti-α-tubulin antibody (lower end panel) was used as an internal loading control. […]

[2] = test system: genotype 2a HCV (JFH1)-infected Huh7 cells; assay: HCV RNA level in Huh7 cells infected with HCV (JFH1); assay type: cell-based, hepatitis C virus genotype 2a; settings: Huh7 cell infected with HCV (JFH-1), 60 and 100 μM, 48 hours
Experimental: as §1
Full-length, infectious HCV RNA of the genotype 2a HCV clone JFH1 was prepared by in vitro transcription using the MEGAscript T7 kit (Ambion, Austin, Tex., USA) and electroporated into Huh7 cells as described previously. Briefly, at 72 h post electroporation, culture medium was collected, cleared by low-speed centrifugation, and passed through a 0.45-μm filter (Millipore, Billerica, Mass., USA) before being used for infection of Huh7 cells. Cells were infected with HCV at a multiplicity of infection of 0.3 by adsorption for 3 h with periodic rocking, then washed three times with phosphate-buffered saline (PBS) and maintained in complete DMEM. […]
as §2, with “Cellular glyceraldehyde-3-phosphate dehydrogenase was used as an internal control.” left out
In order to analyze whether or not 17-DMAG can inhibit replication in a cell infected with HCV, an experiment was carried out with the genotype 2a HCV infectious clone JFH1, which produces infectious virions in Huh7 or Huh7-derived cell lines. […] After 72 hours, total cellular RNA was extracted and HCV remaining in the infected cell was analyzed by quantitative RT-PCR.

R-1 cell = assay: Cytotoxicity / cell viability in R-1 cell; assay type: cell-based, human; settings: R-1 cell, 100 μM
Experimental: (§3) Cytotoxicity of 17-DMAG was measured by using a reagent MTS [3-(4,5-dimethylthiazol-2-yl)-5-(3-carboxylmethoxyphenyl)-2-(4-sulfophenyl)-2H-tetrazolium] (Promega, Madison, Wis., USA) according to the protocols of the manufacturer. The experiment was carried out as follows.
(§4) Huh7 or R-1 cells (2×10^4 cell/well) were seeded in a 96-well plate and treated with 17-DMAG at different concentrations for 72 hours. Then, the culture medium was removed and a MTS substrate dissolved in the culture medium containing 5% FBS was added to each well of the plate. The cells were cultured at 37° C. for 1 hour, and absorbance at 490 nm was read in a 96-well micro plate automatic reading system using GloMax-Multi detection system (Promega).
(§5) An experiment was carried out to check whether or not 17-DMAG inhibited virus RNA replication in an R-1 cell in which autonomous replication of a genotype 1b HCV subgenomic replicon RNA was maintained. Before antiviral activity of 17-DMAG was evaluated, an MTS assay was carried out to evaluate whether or not the drug interfered with cell viability. To be specific, the R-1 cell loaded with a selective HCV subgenomic replicon (upper diagram) and its parental cell line Huh7 were treated with 17-DMAG at a certain concentration for 72 hours, and cell viability was evaluated by the MTS assay.

Huh7 cell = assay: Cytotoxicity / cell viability (MTS) in Huh7 cell; assay type: cell-based, human; settings: 100 μM
Experimental: as §3, §4, §5

recombinant active PRK2 = recombinant active PRK2 (Homo sapiens, UniProt Q16513); assay: In vitro kinase assay: recombinant PRK2 phosphorylating HCV NS5B; assay type: biochemical; settings: gamma-32P ATP and 100 μM ATP, autoradiography
recombinant active PRK2, sequence (Q16513 whole entry): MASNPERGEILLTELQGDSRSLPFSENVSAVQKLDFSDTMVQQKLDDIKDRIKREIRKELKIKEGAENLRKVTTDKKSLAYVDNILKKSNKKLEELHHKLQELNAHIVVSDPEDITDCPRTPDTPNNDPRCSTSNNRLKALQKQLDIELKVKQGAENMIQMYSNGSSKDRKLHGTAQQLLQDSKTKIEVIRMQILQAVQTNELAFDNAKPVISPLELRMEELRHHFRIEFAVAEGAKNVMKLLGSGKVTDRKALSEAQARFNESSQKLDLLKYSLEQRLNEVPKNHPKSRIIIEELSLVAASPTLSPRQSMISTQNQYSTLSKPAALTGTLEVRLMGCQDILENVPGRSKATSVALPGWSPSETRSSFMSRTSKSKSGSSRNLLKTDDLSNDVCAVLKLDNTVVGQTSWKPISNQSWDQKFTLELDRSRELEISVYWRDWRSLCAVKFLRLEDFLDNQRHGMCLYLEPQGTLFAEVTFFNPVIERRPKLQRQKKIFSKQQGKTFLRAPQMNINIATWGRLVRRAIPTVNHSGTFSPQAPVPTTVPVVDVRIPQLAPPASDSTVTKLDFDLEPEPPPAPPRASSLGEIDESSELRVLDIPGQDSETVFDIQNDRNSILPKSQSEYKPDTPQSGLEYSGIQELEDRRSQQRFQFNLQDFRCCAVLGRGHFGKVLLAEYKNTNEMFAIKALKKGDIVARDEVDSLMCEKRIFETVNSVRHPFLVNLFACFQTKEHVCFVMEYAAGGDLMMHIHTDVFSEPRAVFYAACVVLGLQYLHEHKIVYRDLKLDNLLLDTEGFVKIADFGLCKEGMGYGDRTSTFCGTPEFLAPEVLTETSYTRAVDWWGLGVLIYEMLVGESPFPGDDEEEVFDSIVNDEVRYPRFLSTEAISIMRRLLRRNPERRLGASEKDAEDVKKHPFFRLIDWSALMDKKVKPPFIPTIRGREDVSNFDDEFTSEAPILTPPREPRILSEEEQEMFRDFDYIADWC
Experimental: Then, in order to test an HCV NS5B protein phosphorylation inhibition effect of the screened novel PRK2 inhibitor, in vitro kinase assay was carried out.
Using a recombinant active PRK2 and purified HCV NS5B protein as substrates, the screened inhibitors #11 and #17 were treated in the presence of gamma-^32P ATP and 100 μM ATP. The reaction mixture was separated by SDS-PAGE (8% gel), and a result thereof was checked by autoradiography.
Finally, PRK2 and HCV NS5B phosphorylation inhibition effects of the compounds #18, #19, #20, #21 and #22 as the derivatives of the compound #17 were analyzed through in vitro kinase assay.
A 1 μM recombinant PRK2 and 10 μM HCV NS5B were phosphorylated for 30 minutes in the presence of 10 μCi γ-^32P ATP and 100 μM ATP. The reaction mixture was separated by SDS-PAGE (8% gel), and a result thereof was checked by autoradiography.

O=C1NCCCC1C(=O)Nc1ccncc1 (stereo not drawn) [compound #17, 2-oxo-N-4-pyridinyl-3-piperidinecarboxamide]
decrease of HCV RNA titers with respect to DMSO control ([1]; R-1 cell line, 20 μM): about 50% | HCV RNA titers ([1]; R-1 cell, 60 and 100 μM): decreased in a dosage-dependent manner | HCV RNA titers [2]: decreased in a dosage-dependent manner; also recorded: slightly higher in a cell infected with JFH-1 than in an HCV subgenomic replicon cell | activity of the cells (cytotoxicity) (R-1 cell): not greatly inhibited | activity of the cells (cytotoxicity) (Huh7 cell): not greatly inhibited | inhibition of in vitro phosphorylation of HCV NS5B protein (recombinant active PRK2): inhibit phosphorylation of HCV NS5B protein
